This note sets out measurements from patent publication US8877266B2, “Supercritical CO2 liquorice extract anti-microbial and anti-inflammatory isolates and products made there from” (Tom's of Maine, Inc., priority 2007, dated 2014).

For assay [1], the system named is Streptococcus mutans ATCC 25175. Description: Broth microdilution minimum inhibitory concentration, Streptococcus mutans. It counts as cell-based. The conditions noted are these: for MIC: Streptococcus mutans, ATCC25175, read-out: MIC against Streptococcus mutans. Here is the method:
(§1) For anaerobes, 190 μL of sterile, pre-reduced Wilkins Chalgren (WC) anaerobe broth with 0.075% cysteine were added to the first well of the test series in a 96 well plate, followed by 100 μL in each of four additional test wells. Ten μL of filter-sterilized stock solution of licorice CO2 extract, prepared at 40 mg/mL in ethanol, was added to the first well of the series. Contents of the first well were mixed thoroughly and serially diluted (1:1) with the remaining four wells in the series; 100 μL were discarded from the final well in the series. Suspensions of Porphyromanas gingivalis ATCC 33277 or Prevotella. intermedia ATCC 25611, diluted to approximately 1×10^6 cfu (colony forming units) per mL, were added to the test wells in 100 μL quantities. Appropriate growth promotion and sterility controls were included. Plates were incubated at 37° C. anaerobically, until turbidity in the growth control well was observed. The MIC (minimum inhibitory concentration) was recorded as the lowest concentration inhibiting growth of the test organism as viewed with the unaided eye. Streptococcus mutans ATCC 25175 was tested in similar fashion, with Tryptic Soy Broth (TSB) as the test medium and incubation of plates at 37° C. with 5% CO2. Staphylococcus aureus ATCC 6538 was tested using Tryptic Soy Broth (TSB) as the test medium and incubation of plates at 37° C. Aspergillus niger ATCC 16404 was tested, with Tryptic Soy Broth (TSB) as the test medium and incubated at room temperature (25° C.).
(§2) Broth microdilution minimum inhibitory concentration was performed as follows. Ten μL of filter-sterilized stock solution of pure compound, licoricidin or licorisoflavan A, prepared at 1 mg/mL in ethanol, was added to the first well of the series. Contents of the first well were mixed thoroughly and serially diluted (1:1) with the remaining seven wells in the series; 100 μL were discarded from the final well in the series. Suspensions of Porphyromanas gingivalis ATCC 33277 or Prevotella. intermedia ATCC 25611, diluted to approximately 1×10^6 cfu (colony forming units) per mL, were added to the test wells in 100 μL quantities. Appropriate growth promotion and sterility controls were included. Plates were incubated at 37° C. anaerobically, until turbidity in the growth control well was observed. The MIC (minimum inhibitory concentration) was recorded as the lowest concentration inhibiting growth of the test organism as viewed with the unaided eye. Streptococcus mutans ATCC 25175 was tested in similar fashion, with Tryptic Soy Broth (TSB) as the test medium and incubation of plates at 37° C. with 5% CO2.
On the technique in general: Broth dilution looks for growth in wells or tubes with falling amounts of substance.

For assay [2], the system named is Porphyromanas gingivalis ATCC 33277. Put plainly: Broth microdilution minimum inhibitory concentration, Porphyromonas gingivalis. Conditions: for MIC: Porphyromonas gingivalis, ATCC33277, read-out: MIC against Porphyromonas gingivalis. It counts as cell-based. Here is the method:
as §1, §2

Assay [3] has as its system Prevotella intermedia ATCC 25611. Put plainly: Broth microdilution minimum inhibitory concentration, Prevotella intermedia. Conditions: for MIC: Prevotella intermedia, ATCC25611, read-out: MIC against Prevotella intermedia. Type of assay: cell-based. Here is the method:
as §1, §2

Assay [4] is described as follows: Anti-inflammatory activity of the isolated components.
The mark [5] stands for this setting: broth microdilution, TSB, 37° C. with 5% CO2, mode of triplicate.
[6] abbreviates: broth microdilution, anaerobic 37° C., mode of triplicate.

≈ marks a conversion by molar mass, not a printed value.

Regarding `[H]/N=C(\N/C(=N/[H])NCCCCCCNC(=N)NC(=N)Nc1ccc(Cl)cc1)Nc1ccc(Cl)cc1` [Chlorhexidine, reference compound], the MIC (commonly the least concentration at which growth counts as inhibited) in assay [1] (setting [5]) stood at 1.56 µg/mL (≈ 3.09 µM); in assay [2] (setting [6]), 6.25 µg/mL (≈ 12.4 µM); in assay [3] (setting [6]) it was 3.12 µg/mL (≈ 6.18 µM). Also, the “MIC against Streptococcus mutans (Chlorhexidine, Table 1A)” value in assay [1] (column head prints no unit) was found to be 1.56. Further, the “MIC against Porphyromonas gingivalis (Chlorhexidine, Table 1A)” value in assay [2] (column head prints no unit) is listed as 6.25. The “MIC against Prevotella intermedia (Chlorhexidine, Table 1A)” value in assay [3] (column head prints no unit) was found to be 3.125.

Turning to `COc1c(CC=C(C)C)c(O)cc2c1C[C@H](c1ccc(O)c(CC=C(C)C)c1O)CO2` [Licoricidin, licoricidin], the antimicrobial activity (MIC) on Streptococcus mutans in assay [1] was 3.12 µg/mL. Also, the MIC worked out at 3.12 µg/mL (≈ 7.36 µM) in assay [1] (setting [5]), 0.39 µg/mL (≈ 0.919 µM) in assay [2] (setting [6]) and 0.78 µg/mL (≈ 1.84 µM) in assay [3] (setting [6]). Also, the “activity as anti-inflammatory agents” value in assay [4] is “excellent activity”. Besides, the antimicrobial activity (MIC) against Porphyromonas gingivalis in assay [2] was 0.39 µg/mL.

For licorisoflavan A, in assay [1], the antimicrobial activity (MIC) on Streptococcus mutans stood at 3.12 µg/mL. Also, in assay [1] (setting [5]), the “MIC against Streptococcus mutans” value amounted to 3.125 µg/mL. The “activity as anti-inflammatory agents” value in assay [4] is “excellent activity”. Moreover, the “MIC against Porphyromonas gingivalis” value in assay [2] (setting [6]) came out at 0.78 µg/mL. Besides, the “MIC against Prevotella intermedia” value in assay [3] (setting [6]) was 1.56 µg/mL.
